Measurements reported in patent publication US20030083292A1, “Inhibitors of DNA methyltransferase isoforms” (priority 2001, published 2003).

Key:
DNMT3b mRNA = assay: Northern blot of DNMT3b mRNA expression after antisense treatment; format: cell-based, human; details: A549 cells
Method: (§1) To identify antisense oligodeoxynucleotide (ODN) capable of inhibiting DNMT3a or DNMT3b expression in human cancer cells, antisense oligonucleotides were initially screened in T24 (human blader) A549 (human non small cell lung cancers cells at 100 nM. Cells were harvested after 24 hours of treatment, and DNMT3a or DNMT3b RNA expression was analyzed by Northern blot analysis.
(§2) Active oligonucleotides identified in initial screens were then synthesized with phosporothiate backbone modification and 2′-O-methyl modifications of the sugar on the four 5′ and 3′ nucleotides. […] Human A549 or T24 cells were treated with increasing doses of antisense (AS) oligonucleotide from 0-75 nM for 24 hours.
(§3) Briefly, human A549 or T24 human bladder carcinoma cells were seeded in 10 cm tissue culture dishes one day prior to oligonucleotide treatment. The cell lines were obtained from the American Type Culture Collection (ATCC) (Manassas, Va.) and were grown under the recommended culture conditions. Before the addition of the oligonucleotides, cells were washed with PBS (phosphate buffered saline). Next, lipofectin transfection reagent (GIBCO BRL Mississauga, Ontario, Calif.), at a concentration of 6.25 μg/ml, was added to serum free OPTIMEM medium (GIBCO BRL, Rockville, Md.), which was then added to the cells. The oligonucleotides to be screened were then added directly to the cells (i.e., one oligonucleotide per plate of cells).
Cells were harvested, and total RNAs were analyzed by Northern blot analysis. Briefly, total RNA was extracted using RNeasy miniprep columns (QIAGEN). Ten to twenty μg of total RNA was run on a formaldehyde-containing 1% agarose gel with 0.5 M sodium phosphate (pH 7.0) as the buffer system. RNAs were then transferred to nitrocellulose membranes and hybridized with the radiolabelled DNA probes specific for DNMT3a or DNMT3b messenger RNA. Autoradiography was performed using conventional procedures.

DNMT3a mRNA = assay: Northern blot of DNMT3a mRNA expression after antisense treatment; format: cell-based, human; details: A549 cells
Method: as §1, §2
as §3, with “The oligonucleotides to be screened were then added directly to the cells (i.e., one oligonucleotide per plate of cells).” left out
Cells were harvested, and total RNAs were analyzed by Northern blot analysis. […]

[1] = tested on: A549 human non small cell lung cancer cells; assay: Apoptosis, Cell Death Detection ELISA Plus, A549 cells; format: cell-based
Method: (§4) In order to determine the effects of DNMT3a and DNMT3b inhibition on apoptosis of cancer cells, various cancer cell lines (A549 or T24 cells, MDAmb231) were exposed to the DNMT3a and DNMT3b AS-ODN for various periods of time and the effects on apoptosis were determined. For the analysis of apoptosis (active cell death), cells were analyzed using the Cell Death Detection ELISA ^Plus kit (Roche Diagnostic GmBH, Mannheim, Germany) according to the manufacturer's directions. Typically, 10,000 cells were plated in 96-well tissue culture dishes for 2 hours before harvest and lysis. Each sample was analyzed in duplicate. ELISA reading was done using a MR700 plate reader (DYNEX Technology, Ashford, Middlesex, England) at 410 nm. The reference was set at 490 nm.

DNMT1 mRNA = assay: Northern blot, non target mRNA DNMT1; format: cell-based, human; details: A549 cells
[2] = tested on: HMEC (human mammary epithelial cells); assay: Apoptosis in normal cells, HMEC; format: cell-based; details: 75 nM, 48 hrs
Method: as §4
(§5) The effect of DNMT3b inhibition on the induction of apoptosis in normal cells was also determined, the results of which are presented in FIG. 10. HMEC (human mammary epithelial cells, ATCC, Manassas, Va.) and MRHF (foreskin fibroblasts, ATCC, Manassas, Va.) were treated with 75 nM of DNMT3b AS (SEQ ID NO: 18) or its mismatch control SEQ ID NO: 19 for 48 hrs as previously described for human cancer cells.

DNMT3b protein = assay: Western blot of DNMT3b protein level; format: cell-based, human; details: 0-75 nM, 48 hrs
Method: In order to determine whether treatment with DNMT3a or DNMT3b AS-ODNs would inhibit expression at the protein level, antibodies specific for either DNMT3a or DNMT3b were produced for use in western blots. DNMT3b is expressed at sufficiently high levels in human cancer cells to be detected by our DNMT3b antibody. However, DNMT3a is not expressed at detectable levels. Therefore, both human A549 non small cell lung cancer cells and T24 human bladder cancer cells were treated with doses of the DNMT3b antisense inhibitor (SEQ ID NO: 18) ranging from 0-75 nM for 48 hours and then measured DNMT3b protein levels by Western blot.
Briefly, cells were lysed in buffer containing 1% Triton X-100, 0.5% sodium deoxycholate, 5 mM EDTA, 25 mM Tris-HC1, pH 7.5, plus protease inhibitors. Total protein was quantified by the protein assay reagent from Bio-Rad (Hercules, Calif.). 100 ug of total protein was analyzed by SDS-PAGE. Next, total protein was transferred onto a PVDF membrane and probed with DNMT3b specific antibody. Anti-DNMT3b antibody was raised by immunizing rabbits with a GST fusion protein containing a fragment of the DNMT3b protein (amino acids 4-101 of GenBank Accession No. NM_006892). Rabbit antiserum was tested and found only to react specifically to the human DNMT3b isoform. DNMT3b antiserum was used at 1:500 dilution in Western blots to detect DNA MeTase-6 in total cell lysates. Horse Radish Peroxidase conjugated secondary antibody was used at a dilution of 1:5000 to detect primary antibody binding. The secondary antibody binding was visualized by use of the Enhanced chemiluminescence (ECL) detection kit (Amersham-Pharmacia Biotech., Inc., Piscataway, N.J.).

[3] = tested on: MRHF (foreskin fibroblasts); assay: Apoptosis in normal cells, MRHF; format: cell-based, human; details: 75 nM, 48 hrs
Method: as §4, §5

[4] = tested on: Glyceraldehyde 3′-phosphate dehydrogenase mRNA; assay: Northern blot, non target mRNA Glyceraldehyde 3′-phosphate dehydrogenase; format: cell-based, human; details: A549 cells
Method: as §2, §3
Cells were harvested, and total RNAs were analyzed by Northern blot analysis. Briefly, total RNA was extracted using RNeasy miniprep columns (QIAGEN). Ten to twenty μg of total RNA was run on a formaldehyde-containing 1% agarose gel with 0.5 M sodium phosphate (pH 7.0) as the buffer system. […]

Substance	expression of DNMT3b mRNA (DNMT3b mRNA)	IC50 (DNMT3b mRNA; 0-75 nM, 24 hours, read-out: estimated IC50 value, inhibition of DNMT3b expression) [nM]	expression of DNMT3a mRNA (DNMT3a mRNA)	apoptosis [1]	expression of non target mRNA DNMT1 (DNMT1 mRNA)	apoptosis [2]	level of DNMT3b protein (DNMT3b protein; A549 human non small cell lung cancer cells)	level of DNMT3b protein (DNMT3b protein; A549 human non small cell lung cancer cells, listed as MG3741)	level of DNMT3b protein (DNMT3b protein; T24 human bladder cancer cells)	level of DNMT3b protein (DNMT3b protein; T24 human bladder cancer cells, listed as MG3741)	apoptosis [3]	expression of non target mRNA Glyceraldehyde 3′-phosphate dehydrogenase [4]
SEQ ID NO: 18: DNMT3B AS, 3′UTR (3993), PTI, 5′cgtcgtggctccagttacaa3′ (antisense CGTCGTGGCTCCAGTTACAA; DNA, all phosphorothioate, methylation of C not given here)	dose dependent inhibition	~25	not effected	induced apotosis	not effected	no apoptosis	dose dependent effect	inhibits	dose dependent effect	inhibits	no apoptosis	not effected
SEQ ID NO: 33: DNMT3A AS, 3′UTR (4045), PTI, 5′cgtgagaacgcgccatctgc3′ (antisense CGTGAGAACGCGCCATCTGC; DNA, all phosphorothioate, methylation of C not given here)	not effected		dose dependent effect		not effected							not effected
